From ChEMBL document CHEMBL1909046, “DrugMatrix in vitro pharmacology data”

Key:
[1] = target: T1, Cysteinyl leukotriene receptor 1 (Homo sapiens, UniProt Q9Y271); assay type: cell membranes, Membrane; conditions: cho-k1; also: in other assays of this panel Not Active means under 50% inhibition at 10 µM
T1 sequence (Q9Y271 whole entry): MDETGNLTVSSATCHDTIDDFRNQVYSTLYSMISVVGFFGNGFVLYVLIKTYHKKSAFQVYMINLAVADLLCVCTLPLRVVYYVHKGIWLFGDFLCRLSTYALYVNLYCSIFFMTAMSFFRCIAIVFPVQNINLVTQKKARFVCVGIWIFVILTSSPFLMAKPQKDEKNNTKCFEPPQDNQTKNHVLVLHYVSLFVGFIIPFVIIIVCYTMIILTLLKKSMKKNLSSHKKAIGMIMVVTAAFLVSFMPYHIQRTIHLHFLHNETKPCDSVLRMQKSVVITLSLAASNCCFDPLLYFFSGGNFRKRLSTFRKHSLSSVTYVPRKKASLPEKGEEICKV

[2] = target: T2, Cathepsin G (Homo sapiens, UniProt P08311); assay type: tissue-based; conditions: neutrophil;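 also: inhibition of Cathepsin G enzyme activity, tested on an AMC-conjugated peptide substrate; in other assays of this panel Not Active means under 50% inhibition at 10 µM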
T2 sequence (P08311 whole entry): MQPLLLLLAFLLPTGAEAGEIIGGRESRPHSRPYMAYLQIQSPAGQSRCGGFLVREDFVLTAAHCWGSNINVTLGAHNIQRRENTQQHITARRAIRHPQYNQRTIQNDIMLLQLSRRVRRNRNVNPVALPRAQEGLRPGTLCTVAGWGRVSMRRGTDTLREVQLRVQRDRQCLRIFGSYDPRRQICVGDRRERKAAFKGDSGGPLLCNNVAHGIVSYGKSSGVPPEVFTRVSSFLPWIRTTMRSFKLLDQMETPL

[3] = target: 5-hydroxytryptamine receptor 4 (Cavia porcellus, UniProt O70528); assay type: cell membranes, Dunkin-Hartley, Striatum, Membrane; also: in other assays of this panel Not Active means under 50% inhibition at 10 µM
[4] = target: T3, Amine oxidase [flavin-containing] A (Homo sapiens, UniProt P21397); test: DRUGMATRIX: Monoamine Oxidase MAO-A enzyme inhibition (substrate: Kynuramine); design: species or system BTI-TN-5B1-4; conditions: Not Active = under 50% inhibition at 10 µM
T3 sequence (P21397 whole entry): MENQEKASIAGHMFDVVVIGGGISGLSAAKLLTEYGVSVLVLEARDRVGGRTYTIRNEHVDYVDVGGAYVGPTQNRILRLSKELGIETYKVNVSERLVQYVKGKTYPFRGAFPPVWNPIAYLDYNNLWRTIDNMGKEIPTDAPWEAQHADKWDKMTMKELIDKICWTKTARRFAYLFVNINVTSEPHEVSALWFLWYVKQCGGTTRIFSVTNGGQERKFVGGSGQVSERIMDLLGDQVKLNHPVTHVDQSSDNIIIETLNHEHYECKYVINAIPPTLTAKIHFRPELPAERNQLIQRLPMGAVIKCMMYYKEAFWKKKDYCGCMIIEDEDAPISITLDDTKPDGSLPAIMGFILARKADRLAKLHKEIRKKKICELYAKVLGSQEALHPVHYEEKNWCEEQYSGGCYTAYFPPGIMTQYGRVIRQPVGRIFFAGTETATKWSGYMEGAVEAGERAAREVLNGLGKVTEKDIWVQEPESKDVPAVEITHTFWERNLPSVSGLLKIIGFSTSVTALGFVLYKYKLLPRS

[5] = target: Tyrosine-protein kinase Fyn (Homo sapiens, UniProt P06241); test: biochemical; assay type: cell-based, Insect cells;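 also: enzymatic inhibition of Fyn kinase activity measured with Poly(Glu:Tyr) as the phosphorylation substrate; in other assays of this panel Not Active means under 50% inhibition at 10 µM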
[6] = target: Vasopressin V1a receptor (Homo sapiens, UniProt P37288); assay type: cell membranes, Membrane; conditions: hek293; also: in other assays of this panel Not Active means under 50% inhibition at 10 µM
[7] = DRUGMATRIX: GABAA, Chloride Channel, TBOB radioligand binding (ligand: [3H] TBOB); assay type: cell membranes, Rattus norvegicus, Wistar, Cerebral cortex, Membrane; conditions: Not Active = under 50% inhibition at 10 µM

Chain of Vasopressin V1a receptor (P37288 whole entry): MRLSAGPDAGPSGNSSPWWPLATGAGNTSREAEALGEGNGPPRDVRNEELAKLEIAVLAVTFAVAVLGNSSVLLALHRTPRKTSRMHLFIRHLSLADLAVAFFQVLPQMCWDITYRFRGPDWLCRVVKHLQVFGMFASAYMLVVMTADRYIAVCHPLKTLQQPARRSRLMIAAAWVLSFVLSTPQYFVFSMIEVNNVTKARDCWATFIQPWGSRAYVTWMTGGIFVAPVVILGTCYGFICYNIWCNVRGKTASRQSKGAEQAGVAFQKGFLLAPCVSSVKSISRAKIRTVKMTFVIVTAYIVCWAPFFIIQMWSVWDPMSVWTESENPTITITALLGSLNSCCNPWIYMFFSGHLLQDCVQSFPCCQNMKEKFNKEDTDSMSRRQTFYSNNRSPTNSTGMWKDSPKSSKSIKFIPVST
Chain of 5-hydroxytryptamine receptor 4 (O70528 whole entry): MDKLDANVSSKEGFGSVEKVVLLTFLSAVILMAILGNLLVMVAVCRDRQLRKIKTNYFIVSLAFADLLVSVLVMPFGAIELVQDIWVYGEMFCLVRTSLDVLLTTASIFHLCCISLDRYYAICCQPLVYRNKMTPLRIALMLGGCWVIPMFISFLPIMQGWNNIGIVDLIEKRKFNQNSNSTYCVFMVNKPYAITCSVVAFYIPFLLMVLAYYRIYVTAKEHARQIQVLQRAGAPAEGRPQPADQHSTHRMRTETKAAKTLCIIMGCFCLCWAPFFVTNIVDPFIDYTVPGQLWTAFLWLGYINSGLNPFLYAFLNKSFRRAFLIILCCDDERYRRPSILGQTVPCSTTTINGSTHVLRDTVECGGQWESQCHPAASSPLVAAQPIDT
Chain of Tyrosine-protein kinase Fyn (P06241 whole entry): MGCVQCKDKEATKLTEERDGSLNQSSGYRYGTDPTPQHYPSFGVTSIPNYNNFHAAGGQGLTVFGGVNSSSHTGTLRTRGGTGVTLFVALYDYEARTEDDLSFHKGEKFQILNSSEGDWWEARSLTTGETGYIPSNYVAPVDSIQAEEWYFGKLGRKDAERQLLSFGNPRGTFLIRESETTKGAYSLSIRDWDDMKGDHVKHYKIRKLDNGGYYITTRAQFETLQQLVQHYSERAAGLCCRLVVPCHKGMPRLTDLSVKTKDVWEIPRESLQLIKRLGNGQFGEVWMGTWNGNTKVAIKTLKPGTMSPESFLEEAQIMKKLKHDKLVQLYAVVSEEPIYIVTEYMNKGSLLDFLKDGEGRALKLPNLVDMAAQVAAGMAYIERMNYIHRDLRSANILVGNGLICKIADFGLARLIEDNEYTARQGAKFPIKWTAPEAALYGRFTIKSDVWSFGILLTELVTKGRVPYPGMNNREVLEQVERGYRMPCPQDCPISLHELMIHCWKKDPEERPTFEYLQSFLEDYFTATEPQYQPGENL

Compound | IC50 [1] | IC50 [2] | IC50 [3] | IC50 ([4]; bti-tn-5b1-4) | IC50 ([5]; insect cells) | IC50 [6] | IC50 [7] | Ki [7] | IC50 ([5]; read-out: IC50) [µM] | IC50 ([4]; read-out: IC50) [µM]
CCOc1nc2cccc(C(=O)O)c2n1Cc1ccc(-c2ccccc2-c2nnn[nH]2)cc1 | Not Active | Not Active | Not Active | Not Active | Not Active | Not Active | Not Active | Not Active |  | 
O=C(O)CCCc1cccs1 | Not Active | Not Active | Not Active | Not Active | Not Active | Not Active | Not Active | Not Active |  | 
COc1ccccc1N | Not Active | Not Active | Not Active | Not Active | Not Active | Not Active | Not Active | Not Active |  | 
O=C(c1ccccc1F)N1CCC(Cc2ccccc2)CC1 | Not Active | Not Active | Not Active | Not Active | Not Active | Not Active | Not Active | Not Active |  | 
Cc1c(O)cccc1C(=O)N[C@@H](CSc1ccccc1)[C@H](O)CN1C[C@H]2CCCC[C@H]2C[C@H]1C(=O)NC(C)(C)C | Not Active | Not Active | Not Active | Not Active |  | Not Active | Not Active | Not Active | 7.97 | 
CC(O)COC[C@H]1O[C@@H]2O[C@H]3[C@H](O)[C@@H](O)[C@@H](O[C@H]4[C@H](O)[C@@H](O)[C@@H](O[C@H]5[C@H](O)[C@@H](O)[C@@H](O[C@H]6[C@H](O)[C@@H](O)[C@@H](O[C@H]7[C@H](O)[C@@H](O)[C@@H](O[C@H]8[C@H](O)[C@@H](O)[C@@H](O[C@H]1[C@H](O)[C@H]2O)O[C@@H]8COCC(C)O)O[C@@H]7COCC(C)O)O[C@@H]6COCC(C)O)O[C@@H]5COCC(C)O)O[C@@H]4COCC(C)O)O[C@@H]3COCC(C)O (stereo partly drawn) [2-HYDROXYPROPYL-BETA-CYCLODEXTRIN] | Not Active | Not Active | Not Active |  |  | Not Active | Not Active | Not Active | 3.04 | 0.167
NC(=O)c1cccc(N)c1 [3-AMINOBENZAMIDE] | Not Active | Not Active | Not Active | Not Active | Not Active | Not Active | Not Active | Not Active |  | 
C[C@H]1O[C@H](O[C@H]2[C@H](O)[C@@H](O)[C@@H](O[C@H]3[C@H](O)[C@@H](O)C(O)O[C@@H]3CO)O[C@@H]2CO)[C@H](O)[C@@H](O)[C@@H]1N[C@H]1C=C(CO)[C@@H](O)[C@H](O)[C@H]1O (some centres undefined) [ACARBOSE] | Not Active | Not Active | Not Active | Not Active | Not Active | Not Active | Not Active | Not Active |  | 
CC[C@H]1[C@@H]2C[C@H]3[C@@H]4N(C)c5ccccc5[C@]45C[C@@H]([C@@H]2[C@H]5O)N3[C@@H]1O [AJMALINE] | Not Active | Not Active | Not Active | Not Active | Not Active | Not Active | Not Active | Not Active |  | 
NC12CC3CC(CC(C3)C1)C2 [AMANTADINE] | Not Active | Not Active | Not Active | Not Active | Not Active | Not Active | Not Active | Not Active |  | 
NCCCNCCSP(=O)(O)O [AMIFOSTINE] | Not Active | Not Active | Not Active | Not Active | Not Active | Not Active | Not Active | Not Active |  | 
CN(C)CCC=C1c2ccccc2CCc2ccccc21 [AMITRIPTYLINE] | Not Active | Not Active | Not Active | Not Active | Not Active | Not Active | Not Active | Not Active |  | 
CC(=O)Oc1ccccc1C(=O)O [ASPIRIN] | Not Active | Not Active | Not Active | Not Active | Not Active | Not Active | Not Active | Not Active |  | 
